Assay results published in patent publication US12649751B2 (Arcus Biosciences, Inc., priority 2022, dated 2026).
Read-outs that look alike come from different tables or passages of the source.

What was measured:
HPK1 = HPK1 (Homo sapiens, UniProt Q92918); experiment: HPK1 Biochemical Assay (ADP-Glo luminescence; low ATP 10 μM or high ATP 200 μM)
[1] = system: p-SLP-76 (Ser376) in Jurkat cells; experiment: pSLP76 Cellular Assay (AlphaLISA SureFire Ultra p-SLP-76 (Ser376), anti-CD3 activated Jurkat cells); assay type: cell-based; conditions: Homo sapiens, read-out: Cellular Potency
Outline: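 Jurkat cells, serum-starved overnight in Opti-MEM then in HBSS, preincubated 1 h at 37 °C with 22-point 2-fold compound dilutions, then stimulated with anti-CD3 (0.025 mg/ml added solution) for 45 min. Lysate p-SLP-76 (Ser376) measured by AlphaLISA at 570 nm; IC50 from 4-parameter logistic fit.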

[2] = 2 nM HPK1, 10 μM ATP, read-out: Biochemical Potency (low ATP)
[3] = 5 nM HPK1, 200 μM ATP, read-out: Biochemical Potency (high ATP)
[4] = Jurkat cells, anti-CD3 stimulation, pSLP76
[5] = HPK1 ADP-Glo assay, high ATP (200 μM ATP, 5 nM HPK1), read-out: Biochemical Potency (high ATP)
[6] = pSLP76 (Ser376) AlphaLISA, anti-CD3 activated Jurkat cells
[7] = HPK1 ADP-Glo assay, low ATP (10 μM ATP, 2 nM HPK1), read-out: Biochemical Potency (low ATP)

Sequence of HPK1 (Q92918 whole entry, species assumed): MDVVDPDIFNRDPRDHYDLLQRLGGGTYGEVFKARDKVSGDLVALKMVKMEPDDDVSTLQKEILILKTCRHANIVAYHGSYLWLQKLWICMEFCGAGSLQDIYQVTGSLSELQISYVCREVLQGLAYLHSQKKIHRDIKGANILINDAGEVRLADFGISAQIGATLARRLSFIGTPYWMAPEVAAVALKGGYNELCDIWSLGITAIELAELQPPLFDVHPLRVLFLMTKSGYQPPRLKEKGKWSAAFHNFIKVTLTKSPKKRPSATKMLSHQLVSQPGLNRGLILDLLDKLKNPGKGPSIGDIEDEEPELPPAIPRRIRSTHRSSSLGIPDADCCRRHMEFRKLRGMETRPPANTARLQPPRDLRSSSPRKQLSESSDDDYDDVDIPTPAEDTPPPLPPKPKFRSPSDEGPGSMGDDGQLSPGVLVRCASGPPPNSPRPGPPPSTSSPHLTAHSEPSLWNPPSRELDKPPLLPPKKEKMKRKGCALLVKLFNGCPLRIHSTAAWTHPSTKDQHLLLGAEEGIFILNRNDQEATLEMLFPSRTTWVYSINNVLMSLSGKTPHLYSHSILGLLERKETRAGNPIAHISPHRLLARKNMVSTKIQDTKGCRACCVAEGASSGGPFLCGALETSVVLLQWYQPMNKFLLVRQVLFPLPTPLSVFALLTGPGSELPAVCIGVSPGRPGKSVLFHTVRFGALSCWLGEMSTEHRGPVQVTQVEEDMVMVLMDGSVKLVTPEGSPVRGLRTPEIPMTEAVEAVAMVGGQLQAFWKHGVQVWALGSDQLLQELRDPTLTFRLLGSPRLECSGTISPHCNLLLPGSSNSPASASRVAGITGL

| SMILES | IC50 (HPK1; [2]) [nM] | IC50 (HPK1; [3]) [nM] | IC50 [1, 4] [nM] | IC50 (HPK1; [5]) [nM] | IC50 [1, 6] [nM] | IC50 (HPK1; [7]) [nM] |
| --- | --- | --- | --- | --- | --- | --- |
| Cc1cc(-c2nc3cc(Nc4ccc(C5CCOCC5)c(N5C[C@@H]6CCN(C)[C@@H]6C5)n4)ncc3s2)ccn1 [Example 248, 6-[(3aS,6aS)-1-Methyl-octahydropyrrolo[3,4-b]pyrrol-5-yl]-N-[2-(2-methylpyridin-4-yl)-[1,3]thiazolo[5,4-c]pyridin-6-yl]-5-(oxan-4-yl)pyridin-2-amine] | < 100 | < 100 | < 100 | – | – | – |
| Cc1cc(C(=O)N(C)C)cc(-c2nc3cc(Nc4cc(C)cc(N5C[C@@H]6C[C@H]5CN6CCO)n4)ncc3s2)c1 [Example 347] | – | – | – | < 100 | < 100 | – |
| c1cnn(-c2nc3cc(Nc4ccc(C5CCOCC5)c(CN5CCCC5)n4)ncc3s2)c1 [Example 210, 5-(Oxan-4-yl)-N-[2-(1H-pyrazol-1-yl)-[1,3]thiazolo[5,4-c]pyridin-6-yl]-6-[(pyrrolidin-1-yl)methyl]pyridin-2-amine] | < 100 | – | 100 to 1000 | – | – | – |
| CCN1C[C@@H]2C[C@H]1CN2c1nc(C)cc(Nc2cc3nc(-c4ccnc(N5CCOC[C@H]5C(C)C)c4)sc3cn2)n1 [Example 474] | – | – | – | < 100 | < 100 | – |
| CN(Cc1nc(Nc2cc3nc(-c4c(F)cccc4F)sc3cn2)ccc1N1CCOCC1)S(C)(=O)=O [Example 31, N-[(6-{[2-(2,6-Difluorophenyl)-[1,3]thiazolo[5,4-c]pyridin-6-yl]amino}-3-(morpholin-4-yl)pyridin-2-yl)methyl]-N-methylmethanesulfonamide] | 1000 to 5000 | – | > 5000 | – | – | – |
| CCN1C[C@@H]2C[C@H]1CN2c1nc(C)cc(Nc2cc3nc(-c4ccnc(C(=O)NC5CCCC5)c4)sc3cn2)n1 [Example 514] | – | – | – | < 100 | 100 to 1000 | – |
| Cc1cc(Nc2cc3nc(-c4cc(C#N)cc(C(=O)N(C)C)c4)sc3cn2)nc(N2C[C@@H]3C[C@H]2CN3CCO)n1 [Example 554] | – | – | – | < 100 | 100 to 1000 | – |
| Cc1cc(Nc2cc3nc(-c4c(F)cccc4F)sc3cn2)nc(O[C@H]2CCNC2)c1 [Example 175, N-[2-(2,6-Difluorophenyl)-[1,3]thiazolo[5,4-c]pyridin-6-yl]-4-methyl-6-[(3S)-pyrrolidin-3-yloxy]pyridin-2-amine] | < 100 | – | 100 to 1000 | – | – | – |
| Cc1cccnc1-c1nc2cc(Nc3ccc4c(n3)CNCC4)ncc2s1 [Example 300, N-[2-(3-methylpyridin-2-yl)-[1,3]thiazolo[5,4-c]pyridin-6-yl]-5,6,7,8-tetrahydro-1,7-naphthyridin-2-amine] | – | – | – | – | 1000 to 5000 | < 100 |
| Cc1cc(-c2nc3cc(Nc4cc(C)nc(N5C[C@@H]6C[C@H]5CN6CCO)n4)ncc3s2)cc(C2CC2)n1 [Example 537] | – | – | – | < 100 | 100 to 1000 | – |
| CCN1C[C@@H]2C[C@H]1CN2c1nc(C)cc(Nc2cc3nc(-c4cccc(C(=O)N(C)CC5CCOCC5)c4)sc3cn2)n1 [Example 523] | – | – | – | < 100 | 100 to 1000 | – |
| Cc1cc(Nc2cc3nc(-c4cccc(C(=O)N(C)C)c4)sc3cn2)nc(N2C[C@@H]3C[C@H]2CN3CCN(C)S(C)(=O)=O)n1 [Example 498] | – | – | – | 100 to 1000 | 1000 to 5000 | – |
| OCCN1C[C@@H]2C[C@H]1CN2c1nccc(Nc2cc3nc(-c4cnn(CC5CC5)c4)sc3cn2)n1 [Example 357] | – | – | – | < 100 | 100 to 1000 | – |
| Cc1cc(Nc2cc3nc(-c4cccc(C(=O)N5CCOCC5)c4)sc3cn2)nc(N2C[C@@H]3C[C@H]2CN3CCO)n1 [Example 565] | – | – | – | < 100 | 100 to 1000 | – |
| Cc1cccnc1-c1nc2cc(Nc3cc(C4CCC(O)CC4)nc(N4C[C@@H]5C[C@H]4CN5)n3)ncc2s1 (stereo partly drawn) [Example 302, 4-{2-[(1S,4S)-2,5-diazabicyclo[2.2.1]heptan-2-yl]-6-{[2-(3-methylpyridin-2-yl)-[1,3]thiazolo[5,4-c]pyridin-6-yl]amino}pyrimidin-4-yl}cyclohexan-1-ol] | – | – | – | < 100 | < 100 | – |
| CCN1C[C@@H]2C[C@H]1CN2c1nc(C)cc(Nc2cc3nc(-c4cccc(C(=O)N5CCC[C@@H]5C)c4)sc3cn2)n1 [Example 526] | – | – | – | < 100 | < 100 | – |

Now from value to compound:

| IC50 (HPK1; [2]) [nM] | IC50 (HPK1; [3]) [nM] | IC50 [1, 4] [nM] | IC50 (HPK1; [5]) [nM] | IC50 [1, 6] [nM] | IC50 (HPK1; [7]) [nM] | SMILES |
| --- | --- | --- | --- | --- | --- | --- |
| – | – | – | < 100 | < 100 | – | CCN1C[C@@H]2C[C@H]1CN2c1nc(C)cc(Nc2cc3nc(O[C@H](C)c4ccccc4)sc3cn2)n1 [Example 298, 2-[(1S,4S)-5-ethyl-2,5-diazabicyclo[2.2.1]heptan-2-yl]-6-methyl-N-{2-[(1R)-1-phenylethoxy]-[1,3]thiazolo[5,4-c]pyridin-6-yl}pyrimidin-4-amine] |
| – | – | – | < 100 | < 100 | < 100 | Cc1cc(Nc2cc3nc(-c4ncccc4C)sc3cn2)nc(N2C[C@@H]3C[C@H]2CN3)n1 [Example 407] |
| < 100 | – | 100 to 1000 | – | – | – | CNS(=O)(=O)c1cccc(-c2nc3cc(Nc4ccnc(N5C[C@@H]6C[C@H]5CN6C)n4)ncc3s2)c1 [Example 291, N-methyl-3-[6-({2-[(1S,4S)-5-methyl-2,5-diazabicyclo[2.2.1]heptan-2-yl]pyrimidin-4-yl}amino)-[1,3]thiazolo[5,4-c]pyridin-2-yl]benzene-1-sulfonamide] |
| – | – | – | < 100 | 1000 to 5000 | – | COC1CCN(c2cc(-c3nc4cc(Nc5cc(C)nc(N6C[C@@H]7C[C@H]6CN7C)n5)ncc4s3)ccn2)CC1 [Example 456] |
| < 100 | – | > 5000 | – | – | – | Cc1ccc(Nc2cc3nc(-c4ncccc4C)sc3cn2)nc1CN1CC[C@H](F)C1 [Example 43, 6-{[(3S)-3-Fluoropyrrolidin-1-yl]methyl}-5-methyl-N-[2-(3-methylpyridin-2-yl)-[1,3]thiazolo[5,4-c]pyridin-6-yl]pyridin-2-amine] |
| < 100 | – | 100 to 1000 | – | – | – | Cc1ccncc1-c1nc2cc(Nc3cccc(N4C[C@@H]5C[C@H]4CN5C)n3)ncc2s1 [Example 139, 6-[(1S,4S)-5-Methyl-2,5-diazabicyclo[2.2.1]heptan-2-yl]-N-[2-(4-methylpyridin-3-yl)-[1,3]thiazolo[5,4-c]pyridin-6-yl]pyridin-2-amine] |
| – | – | – | < 100 | 100 to 1000 | – | Cc1cc(Nc2cc3nc(-c4cnn5c4COCC5)sc3cn2)nc(N2C[C@@H]3C[C@H]2CN3C)n1 [Example 385] |
| < 100 | < 100 | 100 to 1000 | – | – | – | CN1C[C@@H]2C[C@H]1CN2c1cncc(Nc2cc3nc(-c4cccc(NS(C)(=O)=O)c4)sc3cn2)n1 [Example 285, N-{3-[6-({6-[(1S,4S)-5-methyl-2,5-diazabicyclo[2.2.1]heptan-2-yl]pyrazin-2-yl}amino)-[1,3]thiazolo[5,4-c]pyridin-2-yl]phenyl}methanesulfonamide] |
| – | – | – | 100 to 1000 | 1000 to 5000 | – | Cc1cc(Nc2cc3nc(-c4cccc5c4CCN(C)C5=O)sc3cn2)nc(N2C[C@@H]3C[C@H]2CN3C)n1 [Example 398] |
| < 100 | – | < 100 | – | – | – | c1cc(Nc2cc3nc(-n4cccn4)sc3cn2)nc(N2C[C@@H]3C[C@H]2CN3)c1 [Example 82, 6-[(1S,4S)-2,5-Diazabicyclo[2.2.1]heptan-2-yl]-N-[2-(1H-pyrazol-1-yl)-[1,3]thiazolo[5,4-c]pyridin-6-yl]pyridin-2-amine] |
| – | – | – | < 100 | 1000 to 5000 | – | CCN1C[C@@H]2C[C@H]1CN2c1nc(C)cc(Nc2cc3nc(N[C@H](C)c4ccccc4)sc3cn2)n1 [Example 425] |
| < 100 | – | < 100 | – | – | – | CN1C[C@@H]2C[C@H]1CN2c1cccc(Nc2cc3nc(-c4cccc(C(C)(C)O)c4)sc3cn2)n1 [Example 132, 2-{3-[6-({6-[(1S,4S)-5-Methyl-2,5-diazabicyclo[2.2.1]heptan-2-yl]pyridin-2-yl}amino)-[1,3]thiazolo[5,4-c]pyridin-2-yl]phenyl}propan-2-ol] |
| – | – | – | < 100 | 1000 to 5000 | < 100 | Cc1cccnc1-c1nc2cc(Nc3cccc(C4(F)CC5CC4CN5)n3)ncc2s1 (stereo not shown) [Example 315, {6-(5-fluoro-2-azabicyclo[2.2.1]hept-5-yl)-2-pyridyl}[2-(3-methyl-2-pyridyl)-3-thia-1,5-diaza-6-indenyl]amine] |
| < 100 | – | 100 to 1000 | – | – | – | Cc1cccnc1-c1nc2cc(Nc3cc(F)cc(N4C[C@@H]5C[C@H]4CN5C)n3)ncc2s1 [Example 119, 4-Fluoro-6-[(1S,4S)-5-methyl-2,5-diazabicyclo[2.2.1]heptan-2-yl]-N-[2-(3-methylpyridin-2-yl)-[1,3]thiazolo[5,4-c]pyridin-6-yl]pyridin-2-amine] |
| < 100 | – | 100 to 1000 | – | – | – | CN1C[C@@H]2C[C@H]1CN2c1nccc(Nc2cc3nc(-c4cccc(S(=O)(=O)N(C)C)c4)sc3cn2)n1 [Example 289, N,N-dimethyl-3-[6-({2-[(1S,4S)-5-methyl-2,5-diazabicyclo[2.2.1]heptan-2-yl]pyrimidin-4-yl}amino)-[1,3]thiazolo[5,4-c]pyridin-2-yl]benzene-1-sulfonamide] |
| – | – | – | < 100 | < 100 | – | CCN1C[C@@H]2C[C@H]1CN2c1nc(C)cc(Nc2cc3nc(Oc4cccnc4)sc3cn2)n1 [Example 484] |
| – | – | – | < 100 | < 100 | – | COCc1c(-c2nc3cc(Nc4cc(C)nc(N5C[C@@H]6C[C@H]5CN6C)n4)ncc3s2)cnn1C [Example 351] |
